Assay results as given in PubChem BioAssay AID330 (DTP/NCI, 2004).
“And” between values parts separate entries of the source, which are not always exact repeats. Identical values can stand only once. Toxic doses and inconclusive results are not listed. The calls were made as follows: active = survival T/C of 150% or more; inactive = T/C below 125% in these data.

System: P388 leukemia ip, CD2F1 mice, survival T/C
Assay: NCI In Vivo Anticancer Drug Screen. Data for tumor model P388 Leukemia (intraperitoneal) in CD2F1 (CDF1) mice
Settings: endpoint: median survival time, higher = longer survival
How it was run: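 Mice carrying the transplanted tumor received test compound or vehicle. Survival was recorded in each group, and the value is the treated-group measurement divided by that of the vehicle-treated control group.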

[1] = dose: 12.5 mg/kg/injection, schedule: Q01DX005 (ip), vehicle: saline with Tween-80
[2] = dose: 25.0 mg/kg/injection, schedule: Q01DX005 (ip), vehicle: saline with Tween-80
[3] = dose: 50.0 mg/kg/injection, schedule: Q01DX009 (ip), vehicle: Klucel (hydroxypropylcellulose) (HPC)
[4] = dose: 60.0 mg/kg/injection, schedule: Q01DX005 (ip), vehicle: saline with Tween-80
[5] = dose: 120.0 mg/kg/injection, schedule: Q01DX005 (ip), vehicle: saline with Tween-80
[6] = dose: 240.0 mg/kg/injection, schedule: Q01DX005 (ip), vehicle: saline with Tween-80
[7] = dose: 50.0 mg/kg/injection, schedule: Q01DX009 (ip), vehicle: saline with Tween-80
[8] = dose: 100.0 mg/kg/injection, schedule: Q01DX009 (ip), vehicle: saline with Tween-80

Measured: T/C

Cn1ccc(N)nc1=O
inactive: dose: 50.0 mg/kg/injection, schedule: Q01DX005 (ip), vehicle: saline 101 % of control | dose: 100.0 mg/kg/injection, schedule: Q01DX005 (ip), vehicle: saline 107 % of control | dose: 200.0 mg/kg/injection, schedule: Q01DX005 (ip), vehicle: saline 104 % of control

CCOc1c(N=Nc2ccc(Cl)cc2Cl)c(C)nn1C(=S)S
inactive: dose: 60.0 mg/kg/injection, schedule: Q01DX005 (ip), vehicle: Klucel + Tween-80 90 % of control | dose: 120.0 mg/kg/injection, schedule: Q01DX005 (ip), vehicle: Klucel + Tween-80 103 % of control | dose: 240.0 mg/kg/injection, schedule: Q01DX005 (ip), vehicle: Klucel + Tween-80 100 % of control

O=S1(=O)CCC2=CC(C(F)(F)F)=CC(C(F)(F)F)=CN21
inactive: [1] 109 % of control | [2] 122 % of control | dose: 50.0 mg/kg/injection, schedule: Q01DX005 (ip), vehicle: saline with Tween-80 107 % of control

CC(C)(C)c1cc(C2C(=O)c3ccccc3C2=O)cc(C(C)(C)C)c1O
inactive: dose: 100.0 mg/kg/injection, schedule: Q04DX002 (ip), vehicle: saline 110 % of control | dose: 200.0 mg/kg/injection, schedule: Q04DX002 (ip), vehicle: saline 107 % of control | dose: 400.0 mg/kg/injection, schedule: Q04DX002 (ip), vehicle: saline 107 % of control

ClC(Cl)(Cl)C(c1cccs1)c1cccs1
inactive: [3] 103 % of control | dose: 100.0 mg/kg/injection, schedule: Q01DX009 (ip), vehicle: Klucel (hydroxypropylcellulose) (HPC) 100 % of control | dose: 200.0 mg/kg/injection, schedule: Q01DX009 (ip), vehicle: Klucel (hydroxypropylcellulose) (HPC) 109 % of control | dose: 400.0 mg/kg/injection, schedule: Q01DX009 (ip), vehicle: Klucel (hydroxypropylcellulose) (HPC) 104 % of control

CC(=O)ON(C(=O)c1ccccc1)c1ccccc1
inactive: [4] 104 % of control | [5] 102 % of control | [6] 99 % of control

CC(C)(C)N1N=C2CCCC2[Si]1(C)C (stereo unspecified)
inactive: dose: 25.0 mg/kg/injection, schedule: Q01DX005 (ip), vehicle: Klucel (hydroxypropylcellulose) (HPC) 105 % of control | dose: 50.0 mg/kg/injection, schedule: Q01DX005 (ip), vehicle: Klucel (hydroxypropylcellulose) (HPC) 102 % of control | dose: 100.0 mg/kg/injection, schedule: Q01DX005 (ip), vehicle: Klucel (hydroxypropylcellulose) (HPC) 102 % of control

CCCCCCCCCCCCC[N+](C)([O-])CCCCCC[N+](C)([O-])CCCCCCCCCCCCC (stereo unspecified)
inactive: dose: 12.5 mg/kg/injection, schedule: Q01DX009 (ip), vehicle: Klucel (hydroxypropylcellulose) (HPC) 100 % of control | dose: 25.0 mg/kg/injection, schedule: Q01DX009 (ip), vehicle: Klucel (hydroxypropylcellulose) (HPC) 93 % of control | [3] 101 % of control and 93 % of control

C1=C(OC(=Nc2ccccc2)N2CCOCC2)N=C(OC(=Nc2ccccc2)N2CCOCC2)/C1=C1\C=C(OC(=Nc2ccccc2)N2CCOCC2)N=C1OC(=Nc1ccccc1)N1CCOCC1
inactive: dose: 100.0 mg/kg/injection, schedule: Q01DX001 (ip), vehicle: Klucel (hydroxypropylcellulose) (HPC) 104 % of control | dose: 200.0 mg/kg/injection, schedule: Q01DX001 (ip), vehicle: Klucel (hydroxypropylcellulose) (HPC) 107 % of control | dose: 400.0 mg/kg/injection, schedule: Q01DX001 (ip), vehicle: Klucel (hydroxypropylcellulose) (HPC) 106 % of control

CSC1(C)C(=O)Nc2cc([N+](=O)[O-])ccc21 (stereo unspecified)
inactive: dose: 25.0 mg/kg/injection, schedule: Q01DX009 (ip), vehicle: saline with Tween-80 100 % of control | [7] 99 % of control | [8] 113 % of control

C(=N/c1ccccn1)/c1ccc(/C=N\c2ccccn2)cc1
inactive: [7] 108 % of control | [8] 100 % of control | dose: 200.0 mg/kg/injection, schedule: Q01DX009 (ip), vehicle: saline with Tween-80 106 % of control | dose: 400.0 mg/kg/injection, schedule: Q01DX009 (ip), vehicle: saline with Tween-80 116 % of control

N#CC(NCCNC(C#N)c1ccccc1)c1ccccc1 (stereo unspecified)
inactive: [4] 96 % of control | [5] 90 % of control | [6] 88 % of control

CCCCN(CCCC)c1ccc(C(=NC(C)CCCN(CC)CC)c2ccc(N(C)C)cc2)cc1 (stereo unspecified)
inactive: dose: 6.25 mg/kg/injection, schedule: Q01DX005 (ip), vehicle: saline with Tween-80 107 % of control | [1] 98 % of control | [2] 100 % of control
